This is an account of results in US10287255B2, “Compounds as histone deacetylase 6 inhibitors and pharmaceutical compositions comprising the same” (CHONG KUN DANG PHARMACEUTICAL CORP., priority 2014, dated 2019).

One may read the IC50 as the concentration that gives 50% inhibition.

One experiment deals with T1, human recombinant HDAC6 (Homo sapiens, UniProt Q9UBN7).
T1 construct: purchased Calbiochem 382180
T1 sequence (Q9UBN7 1-1215): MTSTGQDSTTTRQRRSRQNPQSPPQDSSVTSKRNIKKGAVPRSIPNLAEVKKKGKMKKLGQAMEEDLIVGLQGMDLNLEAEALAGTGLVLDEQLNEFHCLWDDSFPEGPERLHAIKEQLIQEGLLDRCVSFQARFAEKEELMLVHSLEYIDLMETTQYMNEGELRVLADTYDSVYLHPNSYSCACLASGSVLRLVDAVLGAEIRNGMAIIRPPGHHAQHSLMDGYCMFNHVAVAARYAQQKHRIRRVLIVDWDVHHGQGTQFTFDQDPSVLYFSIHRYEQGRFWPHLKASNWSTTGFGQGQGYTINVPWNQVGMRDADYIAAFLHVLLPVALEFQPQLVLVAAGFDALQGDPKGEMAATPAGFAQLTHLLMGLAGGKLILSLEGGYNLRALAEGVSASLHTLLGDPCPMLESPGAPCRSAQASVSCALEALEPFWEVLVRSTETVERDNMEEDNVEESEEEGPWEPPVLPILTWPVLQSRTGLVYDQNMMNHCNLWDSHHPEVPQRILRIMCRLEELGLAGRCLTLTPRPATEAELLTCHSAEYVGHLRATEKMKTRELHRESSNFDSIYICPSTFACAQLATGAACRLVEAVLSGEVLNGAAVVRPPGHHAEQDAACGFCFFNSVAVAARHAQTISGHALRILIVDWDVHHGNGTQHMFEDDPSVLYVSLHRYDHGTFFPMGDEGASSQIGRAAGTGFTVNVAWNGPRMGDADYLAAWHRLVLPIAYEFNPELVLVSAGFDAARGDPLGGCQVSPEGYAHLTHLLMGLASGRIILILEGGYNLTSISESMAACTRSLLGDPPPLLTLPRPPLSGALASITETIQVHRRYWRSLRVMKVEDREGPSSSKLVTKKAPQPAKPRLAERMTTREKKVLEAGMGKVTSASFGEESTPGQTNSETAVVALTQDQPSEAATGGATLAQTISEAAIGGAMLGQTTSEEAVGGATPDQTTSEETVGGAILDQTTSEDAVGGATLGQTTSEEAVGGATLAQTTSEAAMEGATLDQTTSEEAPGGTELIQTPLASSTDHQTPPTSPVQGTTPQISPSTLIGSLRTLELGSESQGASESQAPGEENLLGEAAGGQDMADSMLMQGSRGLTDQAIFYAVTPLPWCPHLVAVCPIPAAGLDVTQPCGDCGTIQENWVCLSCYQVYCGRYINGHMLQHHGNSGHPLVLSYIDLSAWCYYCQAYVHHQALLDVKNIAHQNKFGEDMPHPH
The experiment can be described thus: HDAC6 enzyme activity inhibition assay (in vitro, fluorimetric). In kind it is biochemical. To be noted: for HDAC6 selectivity (fold): HDAC6 selectivity over HDAC1; for IC50: human recombinant HDAC6, fluorimetric kit, same protocol as HDAC1. Summed up:
(§1)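 IC50 values derive from fluorescence (Ex 360, Em 460) after developer treatment (30 min) of reactions of recombinant human HDAC1 or HDAC6 with 10 μM Fluor de Lys-SIRT1 substrate (60 min, 30 °C). Compounds were serially diluted 5-fold; 0.3 μg enzyme was used for HDAC1, with HDAC6 tested identically.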

The target of the next experiment is T2, human recombinant HDAC1 (Homo sapiens, UniProt Q13547).
T2 construct: purchased Enzo Life Science BML-SE456
Briefly: HDAC1 enzyme activity inhibition assay (in vitro, fluorimetric). In kind it is biochemical. To be noted: human recombinant HDAC1, fluorimetric kit, 30° C. 60 minutes. The method in brief: as §1

Structures are written as SMILES.

T2 sequence (Q13547 whole entry): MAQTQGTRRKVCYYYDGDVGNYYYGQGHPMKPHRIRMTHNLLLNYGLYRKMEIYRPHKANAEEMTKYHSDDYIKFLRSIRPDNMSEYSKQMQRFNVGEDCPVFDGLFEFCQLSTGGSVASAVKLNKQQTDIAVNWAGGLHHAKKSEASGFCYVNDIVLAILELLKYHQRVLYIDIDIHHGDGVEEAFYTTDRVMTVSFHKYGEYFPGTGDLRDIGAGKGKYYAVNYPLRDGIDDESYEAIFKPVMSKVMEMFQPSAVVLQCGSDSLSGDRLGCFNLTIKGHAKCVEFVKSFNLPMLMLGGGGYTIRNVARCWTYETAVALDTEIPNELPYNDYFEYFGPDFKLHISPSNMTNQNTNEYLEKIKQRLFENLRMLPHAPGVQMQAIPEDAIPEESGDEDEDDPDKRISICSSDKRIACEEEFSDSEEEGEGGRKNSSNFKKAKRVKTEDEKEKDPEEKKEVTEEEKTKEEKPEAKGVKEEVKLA

On to `C[C@@H]1CN(C(=O)c2ccccc2C2=CCC(C)(C)CC2)C[C@H](C)N1Cc1ccc(C(=O)NO)cc1` [Compound 280, 4-(((2S,6R)-4-(4′,4′-dimethyl-2′,3′,4′,5′-tetrahydro-[1,1′-biphenyl]-2-carbonyl)-2,6-dimethylpiperazin-1-yl)methyl)-N-hydroxybenzamide], for which the “HDAC6 selectivity (fold)” value at human recombinant HDAC6 is 46 fold. Further, the IC50 was 388 nM at human recombinant HDAC6 and 17.7 µM on human recombinant HDAC1.
Take `C[C@@H]1CN(Cc2ccc(C(=O)NO)cc2)C[C@H](C)N1Cc1cccc(CN2CCN(Cc3ccccc3)CC2)c1` [Compound 385, 4-(((3R,5S)-4-(3-((4-benzylpiperazin-1-yl)methyl)benzyl)-3,5-dimethylpiperazin-1-yl)methyl)-N-hydroxybenzamide]: the “HDAC6 selectivity (fold)” value on human recombinant HDAC6 is greater than 53 fold. For the same compound, the IC50 is 189 nM on human recombinant HDAC6 and greater than 10 µM at human recombinant HDAC1.
Turning to `C[C@@H]1CN(Cc2ccc(C(=O)NO)cc2)C[C@H](C)N1C(=O)c1cccc(CN2CCOCC2)c1` [Compound 439, 4-(((3R,5S)-3,5-dimethyl-4-(3-(morpholinomethyl)benzoyl)piperazin-1-yl)methyl)-N-hydroxybenzamide], at human recombinant HDAC6, the “HDAC6 selectivity (fold)” value was determined as 105 fold and the half-maximal inhibitory concentration (IC50) was determined as 104 nM. For the same compound, the half-maximal inhibitory concentration (IC50) at human recombinant HDAC1 was 10.9 µM.
For `C[C@@H]1CN(Cc2ccc(C(=O)NO)cc2)C[C@H](C)N1Cc1cccc(Cl)c1C(F)(F)F` [Compound 267, 4-(((3R,5S)-4-(3-chloro-2-(trifluoromethyl)benzyl)-3,5-dimethylpiperazin-1-yl)methyl)-N-hydroxybenzamide], in that order: 75 fold, 188 nM and 14.2 µM.
With `C[C@@H]1CN(C(=O)NCc2cccc(F)c2)C[C@H](C)N1Cc1ccc(C(=O)NO)cc1` [Compound 231, (3R,5S)-N-(3-fluorobenzyl)-4-(4-(hydroxycarbamoyl)benzyl)-3,5-dimethylpiperazine-1-carboxamide], at human recombinant HDAC6, the “HDAC6 selectivity (fold)” value turned out to be 2 fold and the IC50 is 763 nM. The concentration for half-maximal inhibition (IC50) at human recombinant HDAC1 came out at 1.5 µM.
As to `Cc1ccccc1NC(=O)N1[C@H](C)CN(Cc2ccc(C(=O)NO)cc2)C[C@@H]1C` [Compound 160, (2S,6R)-4-(4-(hydroxycarbamoyl)benzyl)-2,6-dimethyl-N-o-tolylpiperazine-1-carboxamide], on human recombinant HDAC6, the “HDAC6 selectivity (fold)” value was 177 fold and the IC50 came to 50 nM. Also, on human recombinant HDAC1, the IC50 was found to be 8.8 µM.
On to `CCN1CC=C(c2ccccc2CN2[C@H](C)CN(Cc3ccc(C(=O)NO)cc3)C[C@@H]2C)CC1` [Compound 485, 4-(((3R,5S)-4-(2-(1-ethyl-1,2,3,6-tetrahydropyridin-4-yl)benzyl)-3,5-dimethylpiperazin-1-yl)methyl)-N-hydroxybenzamide], for which, at human recombinant HDAC6, the “HDAC6 selectivity (fold)” value is 101 fold. In addition, the IC50 is 145 nM at human recombinant HDAC6 and 14.7 µM on human recombinant HDAC1.
For `C[C@@H]1CN(Cc2ccc(CC(=O)NO)cc2)C[C@H](C)N1Cc1ccccc1` [Compound 173, 2-(4-(((3R,5S)-4-benzyl-3,5-dimethylpiperazin-1-yl)methyl)phenyl)-N-hydroxyacetamide], in that order: 85 fold, 85 nM and 7.2 µM.
Take `C[C@@H]1CN(Cc2ccccc2Cl)C[C@H](C)N1Cc1ccc(C(=O)NO)cc1` [Compound 118, 4-(((2S,6R)-4-(2-chlorobenzyl)-2,6-dimethylpiperazin-1-yl)methyl)-N-hydroxybenzamide]: at human recombinant HDAC6, the “HDAC6 selectivity (fold)” value worked out at 48 fold and the IC50 was 113 nM. For the same compound, the IC50 on human recombinant HDAC1 came to 5.5 µM.
With `CC(C)NC(=O)N1C[C@@H](C)N(Cc2ccc(C(=O)NO)cc2)[C@@H](C)C1` [Compound 103, (3R,5S)-4-(4-(hydroxycarbamoyl)benzyl)-N-isopropyl-3,5-dimethylpiperazine-1-carboxamide], on human recombinant HDAC6, the “HDAC6 selectivity (fold)” value worked out at 15 fold and the IC50 turned out to be 173 nM. For the same compound, the IC50 on human recombinant HDAC1 is 2.6 µM.
Take `CCN(CC)CC(C)NCc1cccc(C(=O)N2[C@H](C)CN(Cc3ccc(C(=O)NO)cc3)C[C@@H]2C)c1` (stereo partly drawn) [Compound 440, 4-(((3R,5S)-4-(3-(((1-(diethylamino)propan-2-yl)amino)methyl)benzoyl)-3,5-dimethylpiperazin-1-yl)methyl)-N-hydroxybenzamide]: at human recombinant HDAC6, the “HDAC6 selectivity (fold)” value amounted to 71 fold and the 50% inhibitory concentration (IC50) amounted to 78 nM. Moreover, the IC50 at human recombinant HDAC1 is 5.6 µM.
For `C[C@@H]1CN(CCCCCC(=O)NO)C[C@H](C)N1Cc1ccccc1` [Compound 154, 6-((3R,5S)-4-benzyl-3,5-dimethylpiperazin-1-yl)-N-hydroxyhexanamide] the same measures were 44 fold, 193 nM and 8.4 µM.
For `C[C@@H]1CN(Cc2ccc(-n3cnnc3)cc2)C[C@H](C)N1Cc1ccc(C(=O)NO)cc1` [Compound 304, 4-(((2S,6R)-4-(4-(4H-1,2,4-triazol-4-yl)benzyl)-2,6-dimethylpiperazin-1-yl)methyl)-N-hydroxybenzamide], in that order: 8 fold, 280 nM and 2.3 µM.
For `C[C@@H]1CN(C(=O)Nc2ccccc2)C[C@H](C)N1Cc1ccc(C(=O)NO)cc1` [Compound 162, (3R,5S)-4-(4-(hydroxycarbamoyl)benzyl)-3,5-dimethyl-N-phenylpiperazine-1-carboxamide], in that order: 5 fold, 79 nM and 0.4 µM.
On to `Cc1cccc(NC(=O)N2C[C@@H](C)N(Cc3ccc(C(=O)NO)cc3)[C@@H](C)C2)c1` [Compound 167, (3R,5S)-4-(4-(hydroxycarbamoyl)benzyl)-3,5-dimethyl-N-m-tolylpiperazine-1-carboxamide], for which the “HDAC6 selectivity (fold)” value on human recombinant HDAC6 is recorded as 10 fold. The IC50 worked out at 77 nM on human recombinant HDAC6 and 0.8 µM at human recombinant HDAC1.
For `C[C@@H]1CN(Cc2ccc(C(=O)NO)cc2)C[C@H](C)N1Cc1ccccc1-c1ccncc1` [Compound 329, 4-(((3R,5S)-3,5-dimethyl-4-(2-(pyridin-4-yl)benzyl)piperazin-1-yl)methyl)-N-hydroxybenzamide], in that order: 280 fold, 52 nM and 14.6 µM.
For `C[C@@H]1CN(C(=O)c2ccccc2C2=CCOCC2)C[C@H](C)N1Cc1ccc(C(=O)NO)cc1` [Compound 278, 4-(((2S,6R)-4-(2-(3,6-dihydro-2H-pyran-4-yl)benzoyl)-2,6-dimethylpiperazin-1-yl)methyl)-N-hydroxybenzamide], in that order: 16 fold, 911 nM and 14.4 µM.
For the compound `C[C@@H]1CN(Cc2ccc(C(=O)NO)cc2)C[C@H](C)N1Cc1ccc(CN2CCN(Cc3ccccc3)CC2)cc1` [Compound 413, 4-(((3R,5S)-4-(4-((4-benzylpiperazin-1-yl)methyl)benzyl)-3,5-dimethylpiperazin-1-yl)methyl)-N-hydroxybenzamide], at human recombinant HDAC6, the “HDAC6 selectivity (fold)” value is listed as greater than 769 fold and the IC50 is 13 nM. Also, the IC50 at human recombinant HDAC1 is greater than 10 µM.
